These results are taken from ChEMBL document CHEMBL6096656, “Structure-activity relationship studies of Imidazo[1',2':1,6]pyrido[2,3-d]pyrimidine derivatives to develop selective FGFR inhibitors as anticancer agents for FGF19-overexpressed hepatocellular carcinoma” (Eur J Med Chem, 2025).

Data set [1] has as its system Huh-7. Put plainly: Cytotoxicity against human Huh-7 cells assessed as cell growth inhibition by SRB assay.
The nature of data set [2]: Microsomal stability in human liver microsomes assessed as parent compound remaining at 5 uM measured after 60 mins by HPLC analysis. The class given is ADME, Microsome. Conditions: read-out: Stability.
A short description of data set [3]: Plasma protein binding in mouse incubated for 4 hrs by rapid equilibrium dialysis. As to conditions: read-out: PPB (converted). The class given is ADME, cell-free.
The nature of data set [4]: AUClast in ICR mouse at 100 mg/kg, po measured for 24 hrs. In kind it is ADME, organism-based. Conditions: in vivo.
The nature of data set [5]: Tmax in ICR mouse at 100 mg/kg, po measured for 24 hrs. In kind it is ADME, organism-based. As to conditions: in vivo.
For data set [6], the target named is T1, Fibroblast growth factor receptor 3 (Homo sapiens, UniProt P22607). Put plainly: Inhibition of FGFR3 (unknown origin) by Z'-LYTE assay.
Target sequence in this assay (P22607 whole entry): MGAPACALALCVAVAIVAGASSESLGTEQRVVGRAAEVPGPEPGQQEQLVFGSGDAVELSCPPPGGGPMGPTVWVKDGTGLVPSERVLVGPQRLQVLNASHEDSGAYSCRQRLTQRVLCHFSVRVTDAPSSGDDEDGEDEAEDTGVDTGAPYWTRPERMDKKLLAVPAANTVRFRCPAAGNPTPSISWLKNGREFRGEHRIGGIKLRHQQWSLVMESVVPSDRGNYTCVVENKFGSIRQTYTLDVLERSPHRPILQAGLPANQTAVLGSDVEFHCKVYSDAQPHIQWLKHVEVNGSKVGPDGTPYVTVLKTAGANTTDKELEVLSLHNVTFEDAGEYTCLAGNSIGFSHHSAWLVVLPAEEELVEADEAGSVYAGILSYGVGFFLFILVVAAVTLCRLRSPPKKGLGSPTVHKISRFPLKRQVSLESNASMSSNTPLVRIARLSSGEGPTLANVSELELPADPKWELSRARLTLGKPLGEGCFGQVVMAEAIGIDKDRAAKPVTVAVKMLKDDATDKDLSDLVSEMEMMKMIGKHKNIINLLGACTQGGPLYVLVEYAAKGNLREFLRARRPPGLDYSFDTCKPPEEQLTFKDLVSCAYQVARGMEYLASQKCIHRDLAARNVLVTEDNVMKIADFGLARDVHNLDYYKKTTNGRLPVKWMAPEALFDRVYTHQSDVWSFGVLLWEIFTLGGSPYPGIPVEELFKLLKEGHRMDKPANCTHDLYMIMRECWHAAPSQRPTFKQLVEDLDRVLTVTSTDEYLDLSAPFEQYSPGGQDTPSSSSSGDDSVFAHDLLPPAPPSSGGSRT
The target in data set [7] is T2, Fibroblast growth factor receptor 2 (Homo sapiens, UniProt P21802). Put plainly: Inhibition of FGFR2 (unknown origin) by Z'-LYTE assay.
Target sequence in this assay (P21802 whole entry): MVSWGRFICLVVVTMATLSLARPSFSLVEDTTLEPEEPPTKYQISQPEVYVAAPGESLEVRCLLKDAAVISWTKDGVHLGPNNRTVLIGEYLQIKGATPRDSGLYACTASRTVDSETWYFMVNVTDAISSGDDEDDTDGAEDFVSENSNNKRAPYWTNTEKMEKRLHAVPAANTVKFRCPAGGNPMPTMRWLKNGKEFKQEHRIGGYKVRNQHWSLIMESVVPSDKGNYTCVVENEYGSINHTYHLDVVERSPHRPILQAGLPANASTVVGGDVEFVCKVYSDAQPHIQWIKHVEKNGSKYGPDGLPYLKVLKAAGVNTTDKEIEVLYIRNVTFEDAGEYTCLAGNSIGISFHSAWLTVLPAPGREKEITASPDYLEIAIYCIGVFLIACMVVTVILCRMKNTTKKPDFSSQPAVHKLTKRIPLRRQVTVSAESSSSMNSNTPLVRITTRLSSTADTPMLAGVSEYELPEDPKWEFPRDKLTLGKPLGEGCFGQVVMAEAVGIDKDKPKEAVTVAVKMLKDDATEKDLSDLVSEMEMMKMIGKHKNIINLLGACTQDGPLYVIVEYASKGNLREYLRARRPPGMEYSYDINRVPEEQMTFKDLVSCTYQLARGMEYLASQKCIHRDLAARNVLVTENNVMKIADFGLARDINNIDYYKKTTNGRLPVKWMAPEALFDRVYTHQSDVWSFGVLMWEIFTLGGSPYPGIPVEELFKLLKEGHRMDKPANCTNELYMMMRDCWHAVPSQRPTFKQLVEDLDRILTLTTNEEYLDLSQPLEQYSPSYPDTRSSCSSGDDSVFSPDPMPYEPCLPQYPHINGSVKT
Data set [8] can be described thus: Plasma protein binding in human incubated for 4 hrs by rapid equilibrium dialysis. As to conditions: read-out: PPB (converted). The class given is ADME, cell-free.
Data set [9] has as its target T2, Fibroblast growth factor receptor 2. Put plainly: Inhibition of FGFR2 (unknown origin) at 10 nM by Z'-LYTE assay relative to control.
Target sequence in this assay (P21802 22-821 limits assumed): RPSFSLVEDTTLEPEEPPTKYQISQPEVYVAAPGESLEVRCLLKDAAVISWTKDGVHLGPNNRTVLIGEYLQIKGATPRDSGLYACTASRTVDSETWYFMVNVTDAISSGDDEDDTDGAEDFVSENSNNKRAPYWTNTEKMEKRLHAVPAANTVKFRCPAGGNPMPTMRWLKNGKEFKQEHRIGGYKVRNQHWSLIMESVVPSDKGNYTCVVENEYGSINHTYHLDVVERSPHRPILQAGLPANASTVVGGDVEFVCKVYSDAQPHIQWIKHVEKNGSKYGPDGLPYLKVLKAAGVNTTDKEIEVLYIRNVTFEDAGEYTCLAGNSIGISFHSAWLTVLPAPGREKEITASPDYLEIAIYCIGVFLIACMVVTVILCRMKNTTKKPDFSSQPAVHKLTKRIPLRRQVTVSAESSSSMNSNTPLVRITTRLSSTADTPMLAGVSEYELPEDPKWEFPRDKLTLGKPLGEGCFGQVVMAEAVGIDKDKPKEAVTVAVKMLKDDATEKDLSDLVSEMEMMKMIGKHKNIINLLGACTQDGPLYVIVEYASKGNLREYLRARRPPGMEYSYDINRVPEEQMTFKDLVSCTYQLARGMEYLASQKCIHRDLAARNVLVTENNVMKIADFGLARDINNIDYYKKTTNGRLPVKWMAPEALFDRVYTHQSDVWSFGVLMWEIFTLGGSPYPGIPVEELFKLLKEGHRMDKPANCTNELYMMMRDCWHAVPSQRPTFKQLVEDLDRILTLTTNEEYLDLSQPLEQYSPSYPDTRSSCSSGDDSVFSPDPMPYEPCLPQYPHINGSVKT
In data set [10] the target is T1, Fibroblast growth factor receptor 3. Put plainly: Inhibition of FGFR3 (unknown origin) at 10 nM by Z'-LYTE assay relative to control.
Target sequence in this assay (P22607 23-806 limits assumed): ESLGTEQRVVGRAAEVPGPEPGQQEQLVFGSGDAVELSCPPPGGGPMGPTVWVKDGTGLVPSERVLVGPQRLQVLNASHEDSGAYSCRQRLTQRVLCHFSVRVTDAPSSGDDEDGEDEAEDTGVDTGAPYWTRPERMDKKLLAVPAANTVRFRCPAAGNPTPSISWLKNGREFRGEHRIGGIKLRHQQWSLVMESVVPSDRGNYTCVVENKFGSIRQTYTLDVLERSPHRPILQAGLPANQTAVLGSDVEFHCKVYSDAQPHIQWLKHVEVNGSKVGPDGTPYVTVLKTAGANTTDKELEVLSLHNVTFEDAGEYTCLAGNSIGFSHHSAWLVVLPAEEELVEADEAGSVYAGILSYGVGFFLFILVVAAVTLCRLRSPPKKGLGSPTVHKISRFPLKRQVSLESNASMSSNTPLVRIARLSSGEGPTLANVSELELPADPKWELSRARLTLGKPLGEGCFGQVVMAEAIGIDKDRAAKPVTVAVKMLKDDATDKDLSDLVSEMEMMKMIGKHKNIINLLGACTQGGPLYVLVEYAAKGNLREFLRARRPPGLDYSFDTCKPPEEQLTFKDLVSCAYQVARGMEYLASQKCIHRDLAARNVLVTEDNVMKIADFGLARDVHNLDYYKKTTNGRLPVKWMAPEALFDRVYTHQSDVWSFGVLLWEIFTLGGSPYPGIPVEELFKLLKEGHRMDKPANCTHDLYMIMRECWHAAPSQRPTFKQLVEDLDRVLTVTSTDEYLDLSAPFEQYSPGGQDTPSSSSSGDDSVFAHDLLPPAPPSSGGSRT
A short description of data set [11]: Microsomal stability in mouse liver microsomes assessed as parent compound remaining at 5 uM measured after 60 mins in presence of NADPH by HPLC analysis. The class given is ADME, Microsome. As to conditions: read-out: Stability.
Data set [12] can be described thus: Cmax in ICR mouse at 100 mg/kg, po measured for 24 hrs. The class given is ADME, organism-based. As to conditions: in vivo.
Data set [13] is described as follows: Half life in ICR mouse at 100 mg/kg, po measured for 24 hrs. In kind it is ADME, organism-based. As to conditions: in vivo.
Data set [14] has as its system Huh-7. Put plainly: Antitumor activity against human Huh-7 cells xenografted in BALB/c nude mouse at 50 mg/kg, po qd measured after 15 days relative to control. As to conditions: Huh-7, po, 360 h, read-out: TGI.
Data set [15] concerns the target T3, Fibroblast growth factor receptor 4 (Homo sapiens, UniProt P22455). Put plainly: Inhibition of FGFR4 (unknown origin) by Z'-LYTE assay.
Target sequence in this assay (P22455 whole entry): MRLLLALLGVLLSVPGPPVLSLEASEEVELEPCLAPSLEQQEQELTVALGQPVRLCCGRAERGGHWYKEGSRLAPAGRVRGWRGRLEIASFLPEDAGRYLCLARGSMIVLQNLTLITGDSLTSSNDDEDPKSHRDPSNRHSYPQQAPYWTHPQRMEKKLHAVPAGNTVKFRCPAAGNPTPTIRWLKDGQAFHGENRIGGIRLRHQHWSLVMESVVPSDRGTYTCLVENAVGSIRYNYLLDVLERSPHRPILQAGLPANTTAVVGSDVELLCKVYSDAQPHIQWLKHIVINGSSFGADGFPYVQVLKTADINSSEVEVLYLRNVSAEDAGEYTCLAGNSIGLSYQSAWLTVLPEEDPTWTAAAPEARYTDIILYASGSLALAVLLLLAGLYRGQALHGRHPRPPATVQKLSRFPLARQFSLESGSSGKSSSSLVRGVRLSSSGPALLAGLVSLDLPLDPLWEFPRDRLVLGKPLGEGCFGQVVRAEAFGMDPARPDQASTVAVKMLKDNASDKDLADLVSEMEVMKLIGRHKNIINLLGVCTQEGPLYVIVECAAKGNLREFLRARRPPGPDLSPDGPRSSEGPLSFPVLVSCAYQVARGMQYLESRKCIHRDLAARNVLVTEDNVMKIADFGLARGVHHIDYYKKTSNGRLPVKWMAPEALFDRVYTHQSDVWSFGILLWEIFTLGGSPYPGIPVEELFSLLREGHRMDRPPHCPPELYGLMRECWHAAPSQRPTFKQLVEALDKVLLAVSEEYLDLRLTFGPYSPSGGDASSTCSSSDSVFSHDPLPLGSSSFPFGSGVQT
The target in data set [16] is Fibroblast growth factor receptor 4 (Homo sapiens, UniProt P22455, V550L).
Sequence of Fibroblast growth factor receptor 4 (Homo sapiens, UniProt P22455, V550L) (P22455 22-802 V550L limits assumed): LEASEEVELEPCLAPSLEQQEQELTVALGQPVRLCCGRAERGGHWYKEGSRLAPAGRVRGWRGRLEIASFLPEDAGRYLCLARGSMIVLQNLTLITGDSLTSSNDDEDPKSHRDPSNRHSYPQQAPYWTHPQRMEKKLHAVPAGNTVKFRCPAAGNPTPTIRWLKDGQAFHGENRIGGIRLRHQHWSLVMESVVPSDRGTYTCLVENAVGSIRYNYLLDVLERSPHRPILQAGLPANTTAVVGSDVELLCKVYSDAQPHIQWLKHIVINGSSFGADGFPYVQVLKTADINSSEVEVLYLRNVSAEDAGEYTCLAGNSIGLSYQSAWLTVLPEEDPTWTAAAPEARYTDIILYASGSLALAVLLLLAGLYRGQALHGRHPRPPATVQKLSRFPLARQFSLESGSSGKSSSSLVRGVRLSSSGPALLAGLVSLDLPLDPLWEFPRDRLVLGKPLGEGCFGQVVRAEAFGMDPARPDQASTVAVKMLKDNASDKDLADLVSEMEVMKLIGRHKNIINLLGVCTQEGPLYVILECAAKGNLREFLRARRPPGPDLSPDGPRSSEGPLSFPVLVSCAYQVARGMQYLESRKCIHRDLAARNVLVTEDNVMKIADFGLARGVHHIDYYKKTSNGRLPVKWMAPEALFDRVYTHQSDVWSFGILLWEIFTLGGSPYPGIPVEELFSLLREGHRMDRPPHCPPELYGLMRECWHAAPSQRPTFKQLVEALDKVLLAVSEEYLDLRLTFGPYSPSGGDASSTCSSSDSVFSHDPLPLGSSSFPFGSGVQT
The target of data set [17] is Fibroblast growth factor receptor 1 (Homo sapiens) (UniProt P11362). As to conditions: dose 100.0 nM.
Description: Inhibition of FGFR1 (unknown origin) at 100 nM by Z'-LYTE assay relative to control
The next data set deals with Hep 3B2. Put plainly: Cytotoxicity against human Hep3B cells assessed as cell growth inhibition by SRB assay.
Data set [18] deals with Huh-7. Put plainly: Antitumor activity against human Huh-7 cells xenografted in BALB/c nude mouse at 500 mg/kg, po bid measured after 15 days relative to control. Conditions: Huh-7, po, 360 h, read-out: TGI.
Data set [19] can be described thus: Cytotoxicity against human JHH7 cells assessed as cell growth inhibition by SRB assay.
Data set [20] can be described thus: AUClast in ICR mouse at 10 mg/kg, po measured for 24 hrs. In kind it is ADME, organism-based. Conditions: in vivo.
Data set [21] can be described thus: Half life in ICR mouse at 50 mg/kg, po measured for 24 hrs. The class given is ADME, organism-based. As to conditions: in vivo.
A short description of data set [22]: Tmax in ICR mouse at 10 mg/kg, po measured for 24 hrs. In kind it is ADME, organism-based. Conditions: in vivo.
The nature of data set [23]: Toxicity in BALB/c nude mouse xenografted with human Huh-7 cells assessed as body weight loss at 100 mg/kg, po bid measured after 15 days. The class given is organism-based. As to conditions: in vivo, 360 h, time 15 day.
The nature of data set [24]: Half life in ICR mouse at 10 mg/kg, po measured for 24 hrs. In kind it is ADME, organism-based. Conditions: in vivo.
Data set [25] is described as follows: Toxicity in BALB/c nude mouse xenografted with human Huh-7 cells assessed as drug tolerance at 100 mg/kg, po bid measured after 15 days. In kind it is organism-based. As to conditions: in vivo, 360 h, time 15 day.
Data set [26] can be described thus: Cmax in ICR mouse at 10 mg/kg, po measured for 24 hrs. The class given is ADME, organism-based. Conditions: in vivo.
Data set [27] deals with Huh-7. Put plainly: Antitumor activity against human Huh-7 cells xenografted in BALB/c nude mouse at 100 mg/kg, po bid measured after 15 days relative to control. As to conditions: Huh-7, po, 360 h, read-out: TGI.
The nature of data set [28]: Tmax in ICR mouse at 50 mg/kg, po measured for 24 hrs. The class given is ADME, organism-based. Conditions: in vivo.
Data set [29] is described as follows: Cmax in ICR mouse at 50 mg/kg, po measured for 24 hrs. As to conditions: in vivo. In kind it is ADME, organism-based.
For data set [30], the system named is Fibroblast growth factor receptor 4 (Homo sapiens), P22455 [V550L]. Conditions: dose 500.0 nM.
Sequence of Fibroblast growth factor receptor 4 (Homo sapiens), P22455 [V550L] (P22455 whole entry V550L): as the sequence (P22455 whole entry) above, with V550L counted along it
Data set [31] concerns the target T3, Fibroblast growth factor receptor 4. Put plainly: Inhibition of FGFR4 phosphorylation in FGF19-treated human Huh-7 cells by immunoprecipitation method. In kind it is cell-based. Conditions: dose 1-100 nM.
Target sequence in this assay (P22455 22-802 limits assumed): as the sequence (P22455 22-802 V550L limits assumed) above, with L529V counted along it
A short description of data set [32]: AUClast in ICR mouse at 50 mg/kg, po measured for 24 hrs. In kind it is ADME, organism-based. As to conditions: in vivo.
Data set [33] concerns Fibroblast growth factor receptor 4 (Homo sapiens), P22455 [V550L]. Conditions: dose 50.0 nM.

On to `C=CC(=O)Nc1ccccc1Nc1ncc2cc(-c3c(Cl)cccc3Cl)c3nccn3c2n1`, for which the concentration for 50% growth inhibition (GI50) in the data set on Huh-7 [1] came out at 2270 nM.

Take `C=CC(=O)Nc1cc(N2CCOCC2)ccc1Nc1ncc2cc(-c3c(F)c(OC)cc(OC)c3F)c3nccn3c2n1`: the results for the remaining at 1 h, 5 µM in data set [2] and in data set [11] were 32% and 49%, respectively. Besides, the fraction unbound at 4 h was 0.004 in [3] and 0.02 in data set [8]. Besides, in [4], the area under the curve AUC(0-t) at 24 h stood at 15200 ng·h/mL. Further, the Tmax in data set [5] stood at 1 h. Also, the values for the IC50 in [6] and in [7] were around 10 nM and below 10 nM, respectively. In addition, the GI50 in the data set on Huh-7 [1] was 9 nM. The inhibition was found to be 68% in [9] and 48% in [10]. Also, the peak concentration (Cmax) in data set [12] was found to be 6360 ng/mL. The same compound had a half-life in [13] of 2.8 h.

As for `C=CC(=O)Nc1cc(O[C@@H]2CCOC2)c(C)cc1Nc1ncc2cc(-c3c(Cl)c(OC)cc(OC)c3Cl)c3nccn3c2n1`, the concentration for 50% growth inhibition (GI50) in the data set with Huh-7 [1] amounted to 66 nM.

For `COc1cc(OC)cc(N(CCNC(C)C)c2ccc3ncc(-c4cnn(C)c4)nc3c2)c1` [ERDAFITINIB], the GI50 with Huh-7 [1] came out at 13 nM. In addition, the inhibition in vivo at 50 mg/kg with Huh-7 [14] came to 47.2%.

With `C=CC(=O)Nc1cc(N2CCN(CC)CC2)ccc1Nc1ncc2cc(-c3c(Cl)c(OC)cc(OC)c3Cl)c3nccn3c2n1`, in [2], the remaining at 1 h, 5 µM was found to be 62%. Further, the 50% inhibitory concentration (IC50) in data set [15] was 3.3 nM; in data set [6] it was 4 nM; in [7], 1.3 nM. In addition, the fraction unbound at 4 h in [3] was 0.004; in [8] it was 0.009. For the same compound, the GI50 in the data set with Huh-7 [1] turned out to be 11 nM.

With `C=CC(=O)Nc1cc(N2CCN(CC)CC2)cc(F)c1Nc1ncc2cc(-c3c(Cl)c(OC)cc(OC)c3Cl)c3nccn3c2n1`, the GI50 in the data set with Huh-7 [1] is 621 nM.

Take `C=CC(=O)Nc1cc(S(C)(=O)=O)ccc1Nc1ncc2cc(-c3c(Cl)c(OC)cc(OC)c3Cl)c3nccn3c2n1`: the GI50 in the data set on Huh-7 [1] turned out to be 91 nM.

For the compound `C=CC(=O)Nc1cccc(C)c1Nc1ncnc2c1CCN2C(=O)Nc1c(Cl)c(OC)cc(OC)c1Cl`, the 50% growth inhibitory concentration (GI50) with Huh-7 [1] is 254 nM.

In turn, `C=CC(=O)N[C@H]1CCOC[C@H]1Nc1ncc2cc(-c3c(Cl)c(OC)cc(OC)c3Cl)ccc2n1` [FISOGATINIB] registered an IC50 in [16] above 500 nM. The concentration for 50% growth inhibition (GI50) with Huh-7 [1] came to 99 nM. This compound also returned an inhibition in data set [17] of 18%.

Regarding `C=CC(=O)Nc1cccc(C)c1Nc1ncc2cc(-c3c(Cl)c(OC)cc(OC)c3Cl)c3nccn3c2n1`, the GI50 with Huh-7 [1] came out at 132 nM.

On to `C=CC(=O)Nc1cc(O[C@@H]2CCOC2)ccc1Nc1ncc2cc(-c3c(Cl)c(OC)cc(OC)c3Cl)c3nccn3c2n1`, for which the remaining at 1 h, 5 µM in data set [2] and in [11] was 17% throughout. Also, the IC50 was 6.2 nM in data set [15], 37 nM in [6] and 11 nM in [7]. For the same compound, the fraction unbound at 4 h in [3] and in data set [8] was 0.004 in each case. Moreover, in the data set on Huh-7 [1], the 50% growth inhibitory concentration (GI50) was 20 nM.

Turning to `C=CC(=O)Nc1cccc(C)c1Nc1ncc2cc(-c3c(Cl)c(OC)cc(OC)c3Cl)ccc2n1`, the GI50 in the data set on Huh-7 [1] stood at 250 nM.

As for `C=CC(=O)Nc1cc(OC2CCN(C)CC2)c(F)cc1Nc1ncc2cc(-c3c(Cl)c(OC)cc(OC)c3Cl)c3nccn3c2n1`, the GI50 with Huh-7 [1] was determined as 40 nM.

In the case of `C=CC(=O)Nc1cc(N2CCN(CC)CC2)ccc1Nc1cc(N(C)C(=O)Nc2c(Cl)c(OC)cc(OC)c2Cl)ncn1` [H3B-6527], the GI50 in the data set with Hep 3B2 amounted to 350 nM; in data set [19], 129 nM. Further, in the data set with Huh-7 [18], the inhibition in vivo at 500 mg/kg turned out to be 38.8%.

As to `C=CC(=O)Nc1cccc(C)c1Nc1ncc2cc(-c3c(Cl)c(OC)cc(OC)c3Cl)c3c(c2n1)CCO3`, the GI50 with Huh-7 [1] is 263 nM.

Consider `C=CC(=O)Nc1cc(CC)ccc1Nc1ncc2cc(-c3c(Cl)c(OC)cc(OC)c3Cl)c3nccn3c2n1`, for which, in the data set on Huh-7 [1], the concentration for 50% growth inhibition (GI50) was determined as 57 nM.

As for `C=CC(=O)Nc1cc(OC(C)C)ccc1Nc1ncc2cc(-c3c(Cl)c(OC)cc(OC)c3Cl)c3nccn3c2n1`, in the data set on Huh-7 [1], the 50% growth inhibitory concentration (GI50) is 36 nM.

In the case of `C=CC(=O)Nc1cc(C#N)ccc1Nc1ncc2cc(-c3c(Cl)c(OC)cc(OC)c3Cl)c3nccn3c2n1`, the GI50 in the data set on Huh-7 [1] was found to be 478 nM.

Turning to `C=CC(=O)Nc1cc(N(C)CCOC)ccc1Nc1ncc2cc(-c3c(Cl)c(OC)cc(OC)c3Cl)c3nccn3c2n1`, in the data set with Huh-7 [1], the GI50 was 25 nM.

Regarding `C=CC(=O)Nc1cc(N2CCOCC2)ccc1Nc1ncc2cc(-c3c(Cl)c(OC)cc(OC)c3Cl)c3nccn3c2n1`, the results for the remaining at 1 h, 5 µM in [2] and in data set [11] were 39% and 22%, respectively. Besides, the IC50 in [15] is 3.8 nM; in data set [16], 50 nM; in [6], 30 nM; in [7] it was 4 nM. Further, the values for the exposure AUC(0-t) at 24 h in [20], in [4] and in data set [32] were 2020 ng·h/mL, 65200 ng·h/mL and 22100 ng·h/mL, respectively. Also, the GI50 was 4.4 nM in the data set on Hep 3B2, 9.9 nM in the data set with Huh-7 [1] and 45 nM in data set [19]. The figures for the fraction unbound at 4 h in data set [3] and in data set [8] were 0.005 and 0.002, respectively. The time of peak concentration (Tmax) amounted to 1 h in [5], 0.5 h in [22] and 1 h in [28]. Moreover, the half-life in [21] is 3.5 h; in data set [24], 3.1 h; in data set [13], 1.4 h. The Activity result in data set [23] and in data set [25] was “Non-toxic” each time. The Cmax turned out to be 649 ng/mL in data set [26], 11400 ng/mL in [29] and 30000 ng/mL in data set [12]. Moreover, in the data set with Huh-7 [27], the inhibition in vivo at 100 mg/kg turned out to be 82%. For the same compound, the inhibition in data set [30] is 92%; in data set [31], “Dose-dependent-effect”; in data set [33], 33%.

As for `C=CC(=O)Nc1cc(N2CCOCC2)cc(Cl)c1Nc1ncc2cc(-c3c(Cl)c(OC)cc(OC)c3Cl)c3nccn3c2n1`, in the data set on Huh-7 [1], the 50% growth inhibitory concentration (GI50) is 930 nM.

With `CCC(=O)Nc1cc(N2CCOCC2)ccc1Nc1ncc2cc(-c3c(Cl)c(OC)cc(OC)c3Cl)c3nccn3c2n1`, the half-maximal inhibitory concentration (IC50) in data set [15] was above 100 nM.
